What all share (assay type): physicochemical, human
A short description of data set [1]: LC/MS of blood plasma sample: time from blood collection to centrifugation (Table D). Conditions: blood collection to centrifugation; for Rate of increase or decrease: detection intensity relative to 1 at 15 minutes; for Increase or decrease: detection intensity. The gist of the method:
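Detection intensities are expressed relative to samples centrifuged 15 min after collection (=1), measured by electrospray LC/MS in MRM mode (Discovery HS F5-3, 40 °C, formic acid water/acetonitrile gradient at 0.25 mL/min). EDTA blood from a healthy donor was held at 4 °C, centrifuged at 4 °C, 3000 rpm, 15 min, and plasma frozen.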

Data set [2] is described as follows: LC/MS of blood plasma sample: time from blood collection to cooling of blood (Table E). Details: key to Rate of increase or decrease / Rate of increase or decrease (first value, increase): detection intensity relative to ≤1 min to cooling = 1. Conditions: for Rate of increase or decrease: detection intensity relative to 1 at 1 minute or less, blood collection to cooling 5 minutes; for Increase or decrease: detection intensity, blood collection to cooling 5 minutes or more vs 1 minute or less; for Rate of increase or decrease (second value, decrease) / Rate of increase or decrease (first value, increase): different from individual to individual, relative to 1 at 1 minute or less, collection to cooling 5 minutes; for Rate of increase or decrease (second value, decrease): individuals with decrease; for Rate of increase or decrease (first value, increase): individuals with increase.

The nature of data set [3]: LC/MS of blood plasma sample: number of times of freezing and thawing (Table F). To be noted: for Rate of increase or decrease: detection intensity relative to 1 at 2 times; for Increase or decrease: detection intensity; for Rate of increase or decrease (second value, decrease) / Rate of increase or decrease (first value, increase): different from individual to individual, relative to 1 at 2 times, freezing and thawing 6 times; for Rate of increase or decrease (second value, decrease): individuals with decrease; for Rate of increase or decrease (first value, increase): individuals with increase. The gist of the method: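 Values are detection intensities normalised to 1 for plasma thawed twice, compared against 4, 6 and 10 freeze-thaw cycles. Measured by electrospray LC/MS in MRM mode, formic acid water/acetonitrile mobile phase, column at 40° C. Plasma came from EDTA blood, cooled to 4° C and spun at 3000 rpm for 15 min.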

Data set [4] in a line: LC/MS of serum sample: time from blood collection to centrifugation (Table J). Conditions: for Rate of increase or decrease: detection intensity relative to 1 at 15 minutes; for Increase or decrease / Time when compound is affected: serum sample, LC/MS; for Increase or decrease: detection intensity vs 15 minutes from blood collection to centrifugation; for Time when compound is affected: time from blood collection to centrifugation, detection intensity changed by 30% or more vs 15 minutes. The method in brief:
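Detection intensities are expressed relative to 1 for samples centrifuged 15 min after blood collection; centrifugation was at room temperature, 3500 rpm, 5 min. Frozen serum was run by electrospray LC-MS in MRM mode, with 0.1% formic acid water/acetonitrile at 0.25 mL/min on a 40 °C F5 column.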

A short description of data set [5]: LC/MS of serum sample: time from centrifugation to isolation (Table K). Details: key to Rate of increase or decrease: detection intensity relative to the 30-minute value set as 1. Conditions: for Rate of increase or decrease: detection intensity relative to 1 at 30 minutes; for Increase or decrease / Time when compound is affected: serum sample, LC/MS; for Increase or decrease: detection intensity vs 30 minutes from centrifugation to isolation; for Time when compound is affected: time from centrifugation to isolation, detection intensity changed by 30% or more vs 30 minutes. The gist of the method: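 Serum left at room temperature 30 min, 1 h or 6 h between centrifugation (3500 rpm, 5 min, room temperature) and isolation, then frozen and analysed by LC/MS (Discovery HS F5-3 column, 40° C., 0.1% formic acid water/acetonitrile, electrospray, MRM). Values are detection intensity relative to the 30-min condition set to 1.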

Data set [6] can be described thus: LC/MS of serum sample: number of times of freezing and thawing (Table M). More on the design: key to Rate of increase or decrease: detection intensity relative to 1 at 2 freeze-thaw cycles. To be noted: for Rate of increase or decrease: detection intensity relative to 1 at 2 times; for Number of times when compound is affected / Increase or decrease: serum sample, LC/MS; for Number of times when compound is affected: detection intensity changed by 30% or more vs 2 times of freezing and thawing; for Increase or decrease: detection intensity vs 2 times of freezing and thawing. The gist of the method: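 Values are detection intensities relative to serum thawed twice, versus 4, 6 or 10 freeze-thaw cycles. Serum came from blood spun at room temperature, 3500 rpm for 5 minutes. Analysis: electrospray LC/MS in MRM mode, Discovery HS F5-3 column, 40° C, 0.1% formic acid in water and acetonitrile.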

Where [7] appears, read: after 4 hours from blood collection to centrifugation.
The mark [8] stands for this setting: after 6 hours from centrifugation to isolation.
Setting [9] is: 10 times of freezing and thawing.
[10] abbreviates: 4 times of freezing and thawing.
Where [11] appears, read: freezing and thawing 6 times vs 2 times.
Where [12] appears, read: after 1 hour from centrifugation to isolation.

For the compound `N[C@@H](CC(=O)O)C(=O)O` [Aspartic acid], the “Rate of increase or decrease” value in data set [1] (after 6 hours) amounted to 1.46; in data set [2], 1.93; in data set [3] (freezing and thawing 10 times), 1.76; in data set [4] (setting [7]), 2.10; in data set [5] (setting [8]) it was 2.40; in data set [6] (setting [9]), 0.53. The Increase or decrease entry in data set [1] (after 6 hours vs 15 minutes) is reported as “Increase”; in data set [2], “Increase”; in data set [3] (freezing and thawing 10 times vs 2 times), “Increase”; in data set [4], “Increase”; in data set [5], “Increase”; in data set [6], “Decrease”. Moreover, the “Time when compound is affected” value in data set [4] is “After 4 hours”; in data set [5], “After 6 hours”. In data set [6], the “Number of times when compound is affected” value (“Number of times” for short) was 10 times.
In the case of `N[C@@H](CS)C(=O)O` [Cysteine], the “Rate of increase or decrease” value came to 1.33 in data set [1] (after 4 hours); 1.67 in data set [2]; 1.99 in data set [3] (freezing and thawing 4 times); 1.39 in data set [4] (after 6 hours from blood collection to centrifugation); 0.61 in data set [5] (setting [8]); 1.37 in data set [6] (setting [10]). Further, the Increase or decrease entry in data set [1] (after 4 hours vs 15 minutes) is on record as “Increase”; in data set [2], “Increase”; in data set [3] (freezing and thawing 4 times vs 2 times), “Increase”; in data set [4], “Increase”; in data set [5], “Decrease”; in data set [6] it was “Increase”. For the same compound, the “Time when compound is affected” value in data set [4] and in data set [5] was “After 6 hours” throughout. The “Number of times” value in data set [6] turned out to be 4 times.
For the compound `Nc1ccn([C@@H]2O[C@H](CO)[C@@H](O)[C@H]2O)c(=O)n1` [Cytidine], the “Rate of increase or decrease” value is reported as 1.95 in data set [1] (after 4 hours), 0.62 in data set [4] (setting [7]), 0.70 in data set [5] (setting [12]) and 1.52 in data set [6] (setting [10]). In addition, the Increase or decrease entry was “Increase” in data set [1] (after 4 hours vs 15 minutes); “Different from individual” in data set [2]; “Different from individual” in data set [3] (setting [11]); “Decrease” in data set [4]; “Decrease” in data set [5]; “Increase” in data set [6]. Besides, the “Rate of increase or decrease (second value, decrease)” value in data set [2] is listed as 0.46; in data set [3], 0.30. For the same compound, the entries for the “Rate of increase or decrease (first value, increase)” value in data set [2] and in data set [3] were 2.56 and 1.54, respectively. For the same compound, the figures for the “Time when compound is affected” value in data set [4] and in data set [5] were “After 4 hours” and “After 1 hour hours”, respectively. The “Number of times” value in data set [6] worked out at 4 times.
Consider `NCCc1c[nH]c2ccc(O)cc12` [Serotonin], for which the “Rate of increase or decrease” value in data set [1] (after 4 hours) was 2.95; in data set [5] (setting [12]) it was 0.52; in data set [6] (setting [9]) it was 0.65. Moreover, the Increase or decrease entry in data set [1] (after 4 hours vs 15 minutes) is given as “Increase”; in data set [2], “Different from individual”; in data set [3] (setting [11]), “Different from individual”; in data set [5] it was “Decrease”; in data set [6], “Decrease”. The “Rate of increase or decrease (second value, decrease)” value is 0.63 in data set [2] and 0.68 in data set [3]. Further, the “Rate of increase or decrease (first value, increase)” value in data set [2] was found to be 1.62; in data set [3] it was 1.57. In data set [5], the “Time when compound is affected” value was “After 1 hour hours”. For the same compound, the “Number of times” value in data set [6] is on record as 10 times.

(Values after patent publication US20220146526A1, “METHOD FOR EVALUATING SAMPLE, ANALYSIS METHOD, METHOD FOR DETECTING DEGRADED SAMPLE, MARKER FOR DETECTING DEGRADED BLOOD PLASMA SAMPLE, AND MARKER FOR DETECTING DEGRADED SERUM SAMPLE” (SHIMADZU CORPORATION, priority 2019, published 2022).)
